One data set deals with Aβ38. The experiment in a line: In vivo efficacy: brain level of soluble Aβ38, non-transgenic rodents, single oral dose 30 mg/kg, 4 h, MSD electrochemiluminescence, untreated control = 100. The conditions noted are these: Mus musculus, read-out: Aβ38 (% vs Ctrl) _Mean. On the set-up: species or system mouse. From the text: To determine whether acute administration of an Aβ38 increasing agents would increase Aβ38 levels in vivo, non-transgenic rodents, e.g. mice or rats were used. Animals treated with the Aβ38 increasing agents were examined and compared to those untreated or treated with vehicle and brain levels of soluble Aβ42, Aβ40, Aβ38, and Aβ37 were quantitated by MSD electrochemiluminescence detection technology.
Treatment periods varied from hours (h) to days and were adjusted based on the results of the Aβ38 increase once a time course of onset of effect could be established.
A typical protocol for measuring Aβ38 increase in vivo is shown but it is only one of many variations that could be used to optimize the levels of detectable Aβ. For example, Aβ38 increasing agents were formulated in 20% of Captisol® (a sulfobutyl ether of β-cyclodextrin) in water or 20% hydroxypropyl β cyclodextrin. The Aβ38 increasing agents were administered as a single oral dose or by any acceptable route of administration to overnight fasted animals. After 4 h, the animals were sacrificed and Aβ38 levels were analysed.
(§1) Blood was collected by decapitation and exsanguinations in EDTA-treated collection tubes. Blood was centrifuged at 1900 g for 10 minutes (min) at 4° C. and the plasma recovered and flash frozen for later analysis. The brain was removed from the cranium and hindbrain. The cerebellum was removed and the left and right hemisphere were separated. The left hemisphere was stored at −18° C. for quantitative analysis of test compound levels. The right hemisphere was rinsed with phosphate-buffered saline (PBS) buffer and immediately frozen on dry ice and stored at −80° C. until homogenization for biochemical assays.
(§2) Mouse brains from non-transgenic animals were resuspended in 8 volumes of 0.4% DEA (diethylamine)/50 mM NaCl containing protease inhibitors (Roche-11873580001 or 04693159001) per gram of tissue, e.g. for 0.158 g brain, add 1.264 ml of 0.4% DEA. All samples were homogenized in the FastPrep-24 system (MP Biomedicals) using lysing matrix D (MPBio #6913-100) at 6 m/s for 20 seconds. Homogenates were centrifuged at 20800×g for 5 min and supernatants collected. Supernatants were centrifuged at 221.300×g for 50 min. The resulting high speed supernatants were then transferred to fresh eppendorf tubes. Nine parts of supernatant were neutralized with 1 part 0.5 M Tris-HCl pH 6.8 and used to quantify Aβ.
(§3) To quantify the amount of Aβ42, Aβ40, Aβ38, and Aβ37 in the soluble fraction of the brain homogenates, simultaneous specific detection of Aβ42, Aβ40, Aβ38, and Aβ37 was performed using MSD's electro-chemiluminescence multiplex detection technology. In this assay purified monoclonal antibodies specific for Abeta37 (JRD/Aβ37/3), Abeta38 (J&JPRD/Aβ38/5), Abeta40 (JRF/cAβ40/28), and Abeta42 (JRF/cAβ42/26) were coated on MSD 4-plex plates. Briefly, the standards (a dilution of synthetic Aβ42, Aβ40, Aβ38, and Aβ37) were prepared in 1.5 ml Eppendorf tube in Ultraculture, with final concentrations ranging from 10000 to 0.3 μg/m. The samples and standards were co-incubated with Sulfo-tag labelled JRF/rAß/2 antibody to the N-terminus of Aβ as detector antibody. 50 μl of conjugate/sample or conjugate/standards mixtures were then added to the antibody-coated plate. The plate was allowed to incubate overnight at 4° C. in order to allow formation of the antibody-amyloid complex. Following this incubation and subsequent wash steps the assay was finished by adding read buffer according to the manufacturer's instructions (Meso Scale Discovery, Gaitherburg, Md.).
(§4) The SULFO-TAG emits light upon electrochemical stimulation initiated at the electrode. MSD Sector instrument SI6000 was used for signal read-out.
In this model a Aß38 increase compared to untreated animals would be advantageous, in particular a Aß38 increase with at least 10%, more in particular a Aß38 increase with at least 20%. […]

For another data set, the system named is Aβ40. The experiment in a line: In vivo efficacy: brain level of soluble Aβ40, non-transgenic rodents, single oral dose 30 mg/kg, 4 h, MSD electrochemiluminescence, untreated control = 100. The conditions noted are these: Mus musculus, read-out: Aβ40 (% vs Ctrl) _Mean. Also on record: species or system mouse.
Text: (§5) To determine whether acute administration of an Aβ42 lowering agent would reduce Aβ42 levels in vivo, non-transgenic rodents, e.g. mice or rats were used. Animals treated with the Aβ42 lowering agent were examined and compared to those untreated or treated with vehicle and brain levels of soluble Aβ42, Aβ40, Aβ38, and Aβ37 were quantitated by Meso Scale Discovery's (MSD) electrochemiluminescence detection technology. Treatment periods varied from hours (h) to days and were adjusted based on the results of the Aβ42 lowering once a time course of onset of effect could be established.
(§6) A typical protocol for measuring Aβ42 lowering in vivo is shown but it is only one of many variations that could be used to optimize the levels of detectable Aβ. For example, Aβ42 lowering compounds were formulated in 20% of Captisol® (a sulfobutyl ether of β-cyclodextrin) in water or 20% hydroxypropyl β cyclodextrin. The Aβ42 lowering agents were administered as a single oral dose or by any acceptable route of administration to overnight fasted animals. After 4 h, the animals were sacrificed and Aβ42 levels were analysed.
as §1, §2
as §3, with “pg/m.” for “μg/m.”
The SULFO-TAG emits light upon electrochemical stimulation initiated at the electrode. MSD Sector instrument SI6000 was used for signal read-out. […]

In the next data set the test system is Aβ42. The experiment in a line: In vivo efficacy: brain level of soluble Aβ42, non-transgenic rodents, single oral dose 30 mg/kg, 4 h, MSD electrochemiluminescence, untreated control = 100. Also on record: species or system mouse. Particulars: Mus musculus, read-out: Aβ42 (% vs Ctrl) _Mean.
Text: as §5, §6, §1, §2
as §3, with “pg/m.” for “μg/m.”
as §4
In this model a Aß42 lowering compared to untreated animals would be advantageous, in particular a Aß42 lowering with at least 10%, more in particular a Aß42 lowering with at least 20%. […]

Where a name gives a salt, the structure may show the parent alone. Read-outs that look alike come from different tables or passages of the source.

By melting point is commonly meant the temperature of the solid-liquid transition. `Cc1cn(-c2ccc3n(c2=O)CC(C)N(Cc2ccc(C)c(N4CC5CC5C4)c2)C3=O)cn1` (centres unmarked) (as salt: HCl) [Compound 30] displayed a melting point of 122 °C. On the same count and under the same terms, in the case of `Cc1cn(-c2ccc3n(c2=O)C[C@@H](C)N(Cc2cc(OC4CC4)cc(C(F)(F)F)c2)C3=O)cn1` (as salt: HCl) [Compound 33] it was 149 °C; in that of `Cc1cn(-c2ccc3n(c2=O)C[C@@H](C)N(CCc2cc(OC4CC4)cc(C(F)(F)F)c2)C3=O)cn1` (as salt: HCl) [Compound 40], 102 °C. Same read-out and setting: in the case of `Cc1cn(-c2ccc3n(c2=O)CC(C)N(CCN2CCCC(C(F)(F)F)C2)C3=O)cn1` (centres unmarked) (as salt: HCl) [Compound 43] it was 138 °C. `Cc1cn(-c2ccc3n(c2=O)CC(C)N(C(C)c2cc(OC4CC4)cc(C(F)(F)F)c2)C3=O)cn1` (centres unmarked) (as salt: HCl) [Compound 48] registered a melting point of 122 °C.

For `Cc1cn(-c2ccc3n(c2=O)CC(C)N(C(C)c2ccc(OC(F)(F)F)c(O)c2)C3=O)cn1` (centres unmarked) (as salt: HCl) [Compound 51], the melting point came to 212 °C.

`Cc1cn(-c2ccc3n(c2=O)CC(C)N(C(C)c2ccc(OC(F)(F)F)c(O)c2)C3=O)cn1` (centres unmarked) (as salt: HCl) [Compound 52] yielded a melting point of 223 °C. On the same count and under the same terms, in the case of `Cc1cn(-c2ccc3n(c2=O)C[C@@H](C)N(CC2(c4cc(OC5CC5)cc(C(F)(F)F)c4)CC2)C3=O)cn1` (as salt: HCl) [Compound 53] it was 197 °C.

For `Cc1cn(-c2ccc3n(c2=O)CC(C)N(C(C)c2coc4ccc(Cl)cc24)C3=O)cn1` (single isomer, unassigned) [Compound 57], the response vs control in vivo at 30 mg/kg stood at 134% with Aβ38 (sc, 30 mpk sc); 105% with Aβ40 (sc, 30 mpk sc (footnote *)); 100% in the data set with Aβ42 (sc, 30 mpk sc). `Cc1cn(-c2ccc3n(c2=O)CCN(C(C)c2coc4cc(F)c(Cl)cc24)C3=O)cn1` (single isomer, unassigned) [Compound 60] showed a melting point of 234 °C. With `Cc1cn(-c2ccc3n(c2=O)CC(C)N(C(C)c2coc4cc(F)c(Cl)cc24)C3=O)cn1` (single isomer, unassigned) [Compound 65], the response vs control in vivo at 30 mg/kg in the data set with Aβ38 (po, dose 30 mg/kg oral dosing) was 165%; in the data set on Aβ40 (po, dose 30 mg/kg oral dosing) it was 52%; in the data set with Aβ42 (po, dose 30 mg/kg oral dosing) it was 58%. Consider `Cc1cn(-c2ccc3n(c2=O)CCN(C(C)c2coc4cc(C(F)(F)F)ccc24)C3=O)cn1` (single isomer, unassigned) [Compound 67], for which the melting point turned out to be 200 °C. Turning to `Cc1cn(-c2ccc3n(c2=O)CCN(C(C)c2coc4cc(C(F)(F)F)ccc24)C3=O)cn1` (single isomer, unassigned) [Compound 68], the melting point was determined as 204 °C. As to `Cc1cn(-c2ccc3n(c2=O)C[C@@H](C)N(Cc2cnn4ccc(C(F)(F)F)cc24)C3=O)cn1` [Compound 9], the melting point is 170 °C. `Cc1cn(-c2ccc3n(c2=O)CC(C)N(Cc2noc4ccc(Cl)cc24)C3=O)cn1` (centres unmarked) [Compound 14] registered a melting point of 147 °C. The same measure, in the same setting: in the case of `Cc1cn(-c2ccc3n(c2=O)C[C@@H](C)N(Cc2cc(C(C)C)nn2CC(F)(F)F)C3=O)cn1` [Compound 19] it was 144 °C; in that of `Cc1cn(-c2ccc3n(c2=O)C[C@@H](C)N(Cc2cc4cc(C(F)(F)F)ccc4o2)C3=O)cn1` [Compound 26], 164 °C.

As for `Cc1cn(-c2ccc3n(c2=O)C[C@@H](C)N(Cc2csc(C(F)(F)F)c2)C3=O)cn1` [Compound 28], the melting point worked out at 162 °C.

`Cc1cn(-c2ccc3n(c2=O)C[C@@H](C)N(Cc2csc(CC(F)(F)F)c2)C3=O)cn1` [Compound 29] came in with a melting point of 110 °C. In the case of `Cc1cn(-c2ccc3n(c2=O)CC(C)N(Cc2ccc(C)c(N4CC5CC5C4)c2)C3=O)cn1` (centres unmarked) [Compound 30], the response vs control in vivo at 30 mg/kg amounted to 121% in the data set with Aβ38 (po, dose 30 mg/kg oral dosing); 126% in the data set on Aβ40 (po, dose 30 mg/kg oral dosing); 118% in the data set with Aβ42 (po, dose 30 mg/kg oral dosing). `Cc1cn(-c2ccc3n(c2=O)C[C@@H](C)N(Cc2cc(OC4CC4)cc(C(F)(F)F)c2)C3=O)cn1` [Compound 33]: the response vs control in vivo at 30 mg/kg with Aβ38 (po, dose 30 mg/kg oral dosing) is 132%; with Aβ40 (po, dose 30 mg/kg oral dosing), 79%; in the data set with Aβ42 (po, dose 30 mg/kg oral dosing), 57%.

With `Cc1cn(-c2ccc3n(c2=O)CC(C)N(Cc2cc4c(s2)CCC(C(F)(F)F)C4)C3=O)cn1` (centres unmarked) [Compound 34], the response vs control in vivo at 30 mg/kg amounted to 102% in the data set with Aβ38 (po, dose 30 mg/kg oral dosing); 128% in the data set with Aβ40 (po, dose 30 mg/kg oral dosing); 104% in the data set on Aβ42 (po, dose 30 mg/kg oral dosing). For `Cc1cn(-c2ccc3n(c2=O)CCN(CC2Cc4c(cccc4C(F)(F)F)O2)C3=O)cn1` (centres unmarked) [Compound 44], the melting point is 128 °C. Consider `Cc1cn(-c2ccc3n(c2=O)CCN(Cc2coc4c(F)cc(Cl)cc24)C3=O)cn1` [Compound 56], for which the melting point turned out to be 232 °C.

For the compound `Cc1cn(-c2ccc3n(c2=O)C[C@@H](C)N(Cc2coc4c(C(F)(F)F)cccc24)C3=O)cn1` [Compound 71], the melting point was 225 °C. The same measure, in the same setting: in the case of `Cc1cn(-c2ccc3n(c2=O)CC(C)N(C(C)c2coc4c(F)cc(Cl)cc24)C3=O)cn1` (centres unmarked) [Compound 96] it was 201 °C; in that of `Cc1cn(-c2ccc3n(c2=O)C[C@@H](C)N(Cc2coc4c(Cl)c(Cl)ccc24)C3=O)cn1` [Compound 97], 227 °C; in that of `Cc1cn(-c2ccc3n(c2=O)C[C@@H](C)N(Cc2noc4ccc(C(F)(F)F)cc24)C3=O)cn1` [Compound 101], 140 °C.

These data come from US10562897B2, “Substituted 3,4-dihydro-2H-pyrido[1,2-a]pyrazine-1,6-diones as gamma secretase modulators” (Janssen Pharmaceutica NV, priority 2014, dated 2020).
